In data set [1] the test system is P388/ADM, adriamycin resistant subline. Briefly: Adriamycin cytotoxicity (MTT), P-glycoprotein assay. On the procedure: (§1) The inhibitory effect of milbemycin β1 against the mammalian P-glycoprotein multi-drug resistant pump was determined following the procedure described by Tsuruo et al (Cancer Res., 1981. 41:1967-1972) with slight modification. The cytotoxicity of antitumor agent, adriamycin, against adriamycin sensitive P388 cell line (mouse leukemia) and its adriamycin resistant subline line (P388/ADM) was measured in the presence of various concentrations of milbemycin β1. […] The assay is performed in serum-free media containing 20 μM of 2-mercaptoethanol. Chemosensitivity to adriamycin was determined […] based on the reduction of MTT (3-[4,5-dimethylthiazol-2-yl]-2,5-diphenyltetrazolium bromide) into blue formazan.

The subject of data set [2] is P388 cell line (mouse leukemia), adriamycin sensitive. Described as above. On the procedure: as §1
Data set [3] relates to mammalian P-glycoprotein multi-drug resistant pump. It counts as cell-based, mouse. Particulars: no inhibitor (None). Here is the method:
as §1

In data set [4] the target is pBEN (MF) efflux pump in S. cerevisiae YEM-2 (Candida albicans, UniProt P28873). Briefly: cell-based. It counts as cell-based, C. albicans.
The target in data set [5] is pFLU (MF) efflux pump in S. cerevisiae YEM-38 (Candida albicans, UniProt G1UB37). Briefly: cell-based. It counts as cell-based, C. albicans.
In data set [6] the test system is YEM 13 C. albicans BEN up. Put plainly: microbe, parasite or virus in culture. It is filed as cell-based. Conditions: YEM 13, 24 hrs, 80% inhibition; for MIC of compound in the presence of fluconazole (+): 1/8 × MIC of fluconazole.
Data set [7] concerns pCgBEN (MF) efflux pump in S. cerevisiae YEM-40. It counts as cell-based, C. glabrata. Conditions: YEM-40 pCgBEN; fluconazole fixed at FLUhalf 2.8.
Another data set deals with YEM 53 C. krusei. Put plainly: FEPI MIC with/without 1/8 fluconazole MIC at 24 hrs (Table 11). It is filed as cell-based. Particulars: for MIC of compound in the absence of fluconazole (−): YEM 53, 24 hrs, 80% inhibition.
A further data set concerns YEM 51 C. glabrata wt. Described as above. It counts as cell-based. Conditions: for MIC of compound in the absence of fluconazole (−): YEM 51, 24 hrs, 80% inhibition.
The subject of data set [8] is YEM 15 C. albicans, CDR1CDR2 up. Put plainly: microbe, parasite or virus in culture. It counts as cell-based. Particulars: YEM 15, 24 hrs, 80% inhibition; for MIC of compound in the presence of fluconazole (+): 1/8 × MIC of fluconazole.
The target in data set [9] is pCDRI (ABC) efflux pump in S. cerevisiae YEM-1 (Candida albicans, UniProt P43071). Put plainly: cell-based. It counts as cell-based, C. albicans.
Data set [10] deals with YEM 24 C. albicans ΔCDR1, ΔCDR2. Briefly: microbe, parasite or virus in culture. It counts as cell-based. Conditions: YEM 24, 24 hrs, 80% inhibition; for MIC of compound in the presence of fluconazole (+): 1/8 × MIC of fluconazole.
For data set [11], the system named is YEM 17 C. glabrata, CgCDR up. It is filed as cell-based. Conditions: 24 hrs, 80% inhibition; for MIC of compound in the presence of fluconazole (+): 1/8 × MIC of fluconazole.
Data set [12] concerns the target pCDR2 (ABC) efflux pump in S. cerevisiae YEM-37 (Candida albicans, UniProt P78595). Put plainly: cell-based. It counts as cell-based, C. albicans.
A further data set deals with YEM 30 C. albicans wt. Put plainly: FEPI MIC with/without 1/8 fluconazole MIC at 24 hrs (Table 11). It is filed as cell-based. Conditions: for MIC of compound in the absence of fluconazole (−): YEM 30, 24 hrs, 80% inhibition.
Data set [13] concerns YEM 27 C. albicans ΔCDR1ΔCDR2 ΔBENΔFLU1. Briefly: microbe, parasite or virus in culture. It counts as cell-based. Conditions: YEM 27, 24 hrs, 80% inhibition; for MIC of compound in the presence of fluconazole (+): 1/8 × MIC of fluconazole.
For data set [14], the target named is pCgCDR (ABC) efflux pump in S. cerevisiae YEM-39 (Candida glabrata, UniProt Q6FK23). Briefly: cell-based. It counts as cell-based, C. glabrata.
For the next data set, the system named is Aspergillus fumigatus. Briefly: FEPI MICs in combination with 1/4 the azole's MIC (Table 12). It is filed as cell-based. Particulars: for FEPI MIC with itraconazole, 60% Inh / FEPI MIC with itraconazole, 80% Inh: itraconazole 0.063 μg/ml (1/4 MIC); for FEPI MIC with itraconazole, 60% Inh / FEPI MIC with ketoconazole, 60% Inh: 60% inhibition; for FEPI MIC with itraconazole, 80% Inh / FEPI MIC with ketoconazole, 80% Inh / FEPI MIC (alone): 80% inhibition; for FEPI MIC with ketoconazole, 60% Inh / FEPI MIC with ketoconazole, 80% Inh: ketoconazole 4 μg/ml (1/4 MIC); for FEPI MIC (alone): no azole, 35° C., CM Broth. On the procedure: The combinations were tested against a series of Candida strain with known expression of efflux pumps or with complete deletion of all known pumps and Aspergillus fumigatus. Results are reported as minimum inhibitory concentration (MIC) of […] in the presence or absence of […]. A total of 27 distinct milbemycins were studied.

Where two headings read alike, the source gives them in different places.

pCDRI (ABC) efflux pump in S. cerevisiae YEM-1, sequence (P43071 whole entry): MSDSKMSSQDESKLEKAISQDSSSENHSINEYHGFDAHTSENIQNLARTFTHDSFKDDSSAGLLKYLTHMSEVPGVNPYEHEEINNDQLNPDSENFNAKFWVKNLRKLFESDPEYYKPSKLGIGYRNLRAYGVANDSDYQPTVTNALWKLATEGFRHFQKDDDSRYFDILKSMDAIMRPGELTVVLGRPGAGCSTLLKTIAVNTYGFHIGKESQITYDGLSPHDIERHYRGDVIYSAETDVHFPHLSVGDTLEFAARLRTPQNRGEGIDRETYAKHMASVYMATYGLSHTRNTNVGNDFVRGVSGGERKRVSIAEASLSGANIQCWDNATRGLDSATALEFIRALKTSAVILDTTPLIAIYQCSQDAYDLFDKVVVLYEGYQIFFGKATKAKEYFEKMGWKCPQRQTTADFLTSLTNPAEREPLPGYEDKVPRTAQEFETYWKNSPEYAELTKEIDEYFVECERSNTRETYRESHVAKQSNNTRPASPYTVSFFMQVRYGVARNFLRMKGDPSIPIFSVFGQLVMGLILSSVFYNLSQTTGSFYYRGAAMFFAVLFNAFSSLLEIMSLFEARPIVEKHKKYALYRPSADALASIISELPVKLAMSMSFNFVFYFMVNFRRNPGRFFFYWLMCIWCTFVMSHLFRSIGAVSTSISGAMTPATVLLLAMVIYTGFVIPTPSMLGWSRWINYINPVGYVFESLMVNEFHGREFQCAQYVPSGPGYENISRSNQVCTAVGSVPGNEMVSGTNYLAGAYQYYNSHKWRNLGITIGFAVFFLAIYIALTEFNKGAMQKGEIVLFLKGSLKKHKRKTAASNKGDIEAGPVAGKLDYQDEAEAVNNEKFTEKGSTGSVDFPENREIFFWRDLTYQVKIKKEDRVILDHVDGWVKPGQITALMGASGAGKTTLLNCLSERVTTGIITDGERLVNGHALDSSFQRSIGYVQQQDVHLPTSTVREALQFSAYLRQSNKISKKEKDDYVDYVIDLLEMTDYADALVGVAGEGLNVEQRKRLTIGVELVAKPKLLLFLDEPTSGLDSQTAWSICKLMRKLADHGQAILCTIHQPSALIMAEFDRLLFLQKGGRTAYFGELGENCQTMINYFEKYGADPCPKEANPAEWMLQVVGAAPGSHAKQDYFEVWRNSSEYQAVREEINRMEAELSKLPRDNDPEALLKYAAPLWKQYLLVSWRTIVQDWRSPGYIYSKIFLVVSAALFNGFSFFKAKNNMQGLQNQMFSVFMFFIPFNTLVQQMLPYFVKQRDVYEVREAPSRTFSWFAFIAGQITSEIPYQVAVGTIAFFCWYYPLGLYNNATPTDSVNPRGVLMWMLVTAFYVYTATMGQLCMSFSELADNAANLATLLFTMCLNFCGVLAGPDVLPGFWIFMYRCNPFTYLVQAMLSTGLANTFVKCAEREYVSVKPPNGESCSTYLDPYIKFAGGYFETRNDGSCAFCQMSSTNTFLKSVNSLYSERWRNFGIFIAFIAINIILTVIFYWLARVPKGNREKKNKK
pBEN (MF) efflux pump in S. cerevisiae YEM-2, sequence (P28873 whole entry): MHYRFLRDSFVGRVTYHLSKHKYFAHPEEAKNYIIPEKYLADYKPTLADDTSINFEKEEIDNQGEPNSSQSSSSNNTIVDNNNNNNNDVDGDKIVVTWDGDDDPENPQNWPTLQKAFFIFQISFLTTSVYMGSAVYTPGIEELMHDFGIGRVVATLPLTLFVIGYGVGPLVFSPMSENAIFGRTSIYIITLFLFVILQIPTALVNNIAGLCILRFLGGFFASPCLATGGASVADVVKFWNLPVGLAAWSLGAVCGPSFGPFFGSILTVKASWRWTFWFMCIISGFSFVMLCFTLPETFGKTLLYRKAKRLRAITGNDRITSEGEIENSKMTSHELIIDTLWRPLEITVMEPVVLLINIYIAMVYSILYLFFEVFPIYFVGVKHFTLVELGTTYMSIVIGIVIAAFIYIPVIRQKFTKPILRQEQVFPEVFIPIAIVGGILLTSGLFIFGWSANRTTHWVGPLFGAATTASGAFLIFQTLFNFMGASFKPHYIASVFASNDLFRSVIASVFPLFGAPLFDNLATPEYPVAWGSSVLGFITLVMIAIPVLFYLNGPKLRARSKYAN
pCgCDR (ABC) efflux pump in S. cerevisiae YEM-39, sequence (Q6FK23 whole entry): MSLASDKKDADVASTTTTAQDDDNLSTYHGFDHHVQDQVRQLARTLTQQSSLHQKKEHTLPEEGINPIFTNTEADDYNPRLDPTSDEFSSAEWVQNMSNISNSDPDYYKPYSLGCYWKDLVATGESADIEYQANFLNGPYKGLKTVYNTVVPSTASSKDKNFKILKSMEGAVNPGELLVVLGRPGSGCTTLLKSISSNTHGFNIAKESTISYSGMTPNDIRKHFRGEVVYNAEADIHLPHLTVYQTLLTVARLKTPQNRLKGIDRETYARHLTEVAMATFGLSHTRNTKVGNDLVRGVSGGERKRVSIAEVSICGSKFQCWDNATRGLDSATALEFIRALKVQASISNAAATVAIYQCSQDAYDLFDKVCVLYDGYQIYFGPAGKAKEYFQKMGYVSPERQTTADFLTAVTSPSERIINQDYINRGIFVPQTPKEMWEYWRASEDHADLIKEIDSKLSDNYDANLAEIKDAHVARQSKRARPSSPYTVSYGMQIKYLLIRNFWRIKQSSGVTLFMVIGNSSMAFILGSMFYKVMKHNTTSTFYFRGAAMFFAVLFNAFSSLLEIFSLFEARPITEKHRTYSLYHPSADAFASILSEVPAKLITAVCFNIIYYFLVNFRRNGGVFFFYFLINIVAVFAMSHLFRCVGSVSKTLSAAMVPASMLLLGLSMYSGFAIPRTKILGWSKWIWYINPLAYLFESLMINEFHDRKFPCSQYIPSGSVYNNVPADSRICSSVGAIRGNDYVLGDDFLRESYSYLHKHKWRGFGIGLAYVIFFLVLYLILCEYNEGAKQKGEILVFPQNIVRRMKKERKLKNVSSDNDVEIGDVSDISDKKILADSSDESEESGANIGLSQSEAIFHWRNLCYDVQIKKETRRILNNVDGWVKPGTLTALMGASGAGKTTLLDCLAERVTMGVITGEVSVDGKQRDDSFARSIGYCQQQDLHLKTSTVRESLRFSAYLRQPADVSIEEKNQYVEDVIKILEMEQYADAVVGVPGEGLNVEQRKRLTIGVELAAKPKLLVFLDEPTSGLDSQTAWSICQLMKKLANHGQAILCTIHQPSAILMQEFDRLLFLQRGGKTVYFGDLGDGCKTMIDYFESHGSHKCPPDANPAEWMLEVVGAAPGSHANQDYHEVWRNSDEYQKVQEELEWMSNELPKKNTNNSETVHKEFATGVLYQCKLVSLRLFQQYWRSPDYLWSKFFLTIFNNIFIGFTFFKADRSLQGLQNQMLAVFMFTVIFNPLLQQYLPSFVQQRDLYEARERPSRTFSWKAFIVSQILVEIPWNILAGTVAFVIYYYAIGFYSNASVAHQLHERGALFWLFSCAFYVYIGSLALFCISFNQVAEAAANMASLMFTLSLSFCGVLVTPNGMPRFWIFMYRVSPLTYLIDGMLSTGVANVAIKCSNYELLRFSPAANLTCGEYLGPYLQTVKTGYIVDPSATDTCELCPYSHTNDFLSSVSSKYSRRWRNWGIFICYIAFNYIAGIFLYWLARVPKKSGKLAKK
pFLU (MF) efflux pump in S. cerevisiae YEM-38, sequence (G1UB37 whole entry): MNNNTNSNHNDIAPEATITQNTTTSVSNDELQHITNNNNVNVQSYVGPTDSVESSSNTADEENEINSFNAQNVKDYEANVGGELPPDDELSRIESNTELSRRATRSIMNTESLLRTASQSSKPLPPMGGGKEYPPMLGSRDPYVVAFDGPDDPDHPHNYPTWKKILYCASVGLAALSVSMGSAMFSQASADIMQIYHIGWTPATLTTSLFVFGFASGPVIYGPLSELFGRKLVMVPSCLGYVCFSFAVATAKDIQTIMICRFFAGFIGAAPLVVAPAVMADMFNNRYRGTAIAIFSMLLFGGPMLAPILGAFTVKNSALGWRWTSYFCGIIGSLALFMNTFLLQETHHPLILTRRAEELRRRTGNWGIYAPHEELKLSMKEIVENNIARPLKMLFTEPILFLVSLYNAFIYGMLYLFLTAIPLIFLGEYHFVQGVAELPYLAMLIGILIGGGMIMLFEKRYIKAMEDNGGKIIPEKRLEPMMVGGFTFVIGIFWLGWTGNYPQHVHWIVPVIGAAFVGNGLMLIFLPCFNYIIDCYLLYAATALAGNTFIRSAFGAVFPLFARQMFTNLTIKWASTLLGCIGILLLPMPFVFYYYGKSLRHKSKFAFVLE

Take `COc1cccc2c1C(=O)c1c(O)c3c(c(O)c1C2=O)C[C@@](O)(C(=O)CO)C[C@@H]3O[C@H]1C[C@H](N)[C@H](O)[C@H](C)O1` [Adriamycin, adriamycin, reference compound]: the “Adriamycin TC50, P388/ADM” value in data set [1] was 2.954 µg/mL. Moreover, in [2], the “Adriamycin TC50, P388” value was determined as 0.009 µg/mL. Further, the “Ratio [P388/A]/[P388]” value in [3] is given as 337.
As for `CO[C@@H]1C(C)=C[C@H]2C(=O)O[C@H]3C[C@@H](C/C=C(\C)C[C@@H](C)/C=C/C=C4\CO[C@H]1[C@@]42O)O[C@]1(C3)C[C@H](O)[C@H](C)[C@@H](/C(C)=C/C(C)C)O1` [Compound 16, LL-F2849λ (nemedectinλ)], the IC50 is above 102 µM in data set [4] (read-out: FEPIhalf (concentration needed to reduce activity of efflux pump by 50%), YEM-2 pBEN, fluconazole fixed at FLUhalf 5.6); above 102 µM in [5] (read-out: FEPIhalf (concentration needed to reduce activity of efflux pump by 50%), YEM-38 pFLU, fluconazole fixed at FLUhalf 2); 1.6 µM in [9] (read-out: FEPIhalf (concentration needed to reduce activity of efflux pump by 50%), YEM-1 pCDRI, fluconazole fixed at FLUhalf 5.6); 0.399 µM in data set [12] (read-out: FEPIhalf (concentration needed to reduce activity of efflux pump by 50%), YEM-37 pCDR2, fluconazole fixed at FLUhalf 1); 102 µM in data set [14] (read-out: FEPIhalf (concentration needed to reduce activity of efflux pump by 50%), YEM-39 pCgCDR, fluconazole fixed at FLUhalf 4). Moreover, the MIC of compound in the presence of fluconazole (+) was 64 µg/mL in data set [6]; above 64 µg/mL in the data set on YEM 53 C. krusei; 2 µg/mL in the data set on YEM 51 C. glabrata wt; 0.125 µg/mL in [8]; above 64 µg/mL in data set [10]; 32 µg/mL in data set [11]. Besides, the “MIC of compound in the presence of fluconazole (+)” value with YEM 30 C. albicans wt is “≦0.03”; in data set [13] it was above 64 µg/mL. The MIC of compound in the absence of fluconazole (−) (in data set [6]; in the data set with YEM 53 C. krusei; in the data set with YEM 51 C. glabrata wt; in data set [8]; in data set [10]; in [11]) was above 64 µg/mL throughout. Further, the MIC of compound in the absence of fluconazole (−) (in the data set with YEM 30 C. albicans wt; in data set [13]) was above 64 µg/mL each time. In addition, the “FEPIhalf (concentration needed to reduce activity of efflux pump by 50%)” value in [7] is listed as above 64. In addition, in the data set on Aspergillus fumigatus, the “FEPI MIC with fluconazole, 60% Inh” value was above 64. For the same compound, the “FEPI MIC with fluconazole, 80% Inh” value with Aspergillus fumigatus is above 64. Further, the “FEPI MIC with itraconazole, 60% Inh” value in the data set with Aspergillus fumigatus worked out at 1. Moreover, in the data set on Aspergillus fumigatus, the “FEPI MIC with itraconazole, 80% Inh” value was above 64. Besides, the “FEPI MIC with ketoconazole, 60% Inh” value with Aspergillus fumigatus was determined as 0.125. For the same compound, the “FEPI MIC with ketoconazole, 80% Inh” value with Aspergillus fumigatus amounted to 0.125. Moreover, in the data set on Aspergillus fumigatus, the “FEPI MIC (alone)” value is recorded as above 64.
In the case of `CO[C@@H]1C(C)=C[C@H]2C(=O)O[C@H]3C[C@@H](C/C=C(\C)C[C@@H](C)/C=C/C=C4\CO[C@H]1[C@@]42O)O[C@@]1(CC[C@H](C)[C@@H](C)O1)C3` [Compound 4, Milbemycin α2], the IC50 is above 118 µM in [4]; above 118 µM in data set [5]; 0.23 µM in data set [9]; 0.461 µM in data set [12]; 7.37 µM in [14]. The MIC of compound in the presence of fluconazole (+) in [6] was above 64 µg/mL; in the data set with YEM 53 C. krusei it was 8 µg/mL; in the data set with YEM 51 C. glabrata wt, 4 µg/mL; in [8], “≦0.03”; in [10], above 64 µg/mL; in [11] it was 2 µg/mL. Also, the “MIC of compound in the presence of fluconazole (+)” value is “≦0.03” in the data set on YEM 30 C. albicans wt and 64 µg/mL in data set [13]. Besides, the MIC of compound in the absence of fluconazole (−) (in [6]; in the data set with YEM 53 C. krusei; with YEM 51 C. glabrata wt; in [8]; in data set [10]; in [11]) was above 64 µg/mL in each case. The MIC of compound in the absence of fluconazole (−) (with YEM 30 C. albicans wt; in [13]) was above 64 µg/mL throughout. Further, the “FEPIhalf (concentration needed to reduce activity of efflux pump by 50%)” value in [7] was above 64. The “FEPI MIC with fluconazole, 60% Inh” value in the data set with Aspergillus fumigatus came to 1. Also, the “FEPI MIC with fluconazole, 80% Inh” value in the data set with Aspergillus fumigatus was above 64. In addition, the “FEPI MIC with itraconazole, 60% Inh” value in the data set with Aspergillus fumigatus was found to be 2. Also, the “FEPI MIC with itraconazole, 80% Inh” value with Aspergillus fumigatus was above 64. Further, the “FEPI MIC with ketoconazole, 60% Inh” value in the data set on Aspergillus fumigatus was 0.5. Further, the “FEPI MIC with ketoconazole, 80% Inh” value with Aspergillus fumigatus is 0.5. Besides, in the data set with Aspergillus fumigatus, the “FEPI MIC (alone)” value is on record as above 64.
